Data reported in US20240150423A1, “GLP-1 ANALOGUE-MODIFIED DIMERS WITH DIFFERENT CONFIGURATIONS, PREPARATION METHOD THEREOF, AND APPLICATION THEREOF IN TREATMENT OF TYPE II DIABETES” (Nanjing Finepeptide Biopharmaceutical Co.,Ltd, priority 2019, published 2024).
Non-standard residues stand in square brackets, D forms with d. No end group written: not given here. bAib = not defined here; PEG = not defined here; βAla = NCCC(=O)O

Test system: Normal Kunming (KM) mice
Experiment: multiple OGTT (mOGTT): hypoglycemic duration after a single administration
Assay type: in vivo
Settings: single injection at the same dose (1.126 nmol), subcutaneous; for Hypoglycemic: monomeric peptides
Source text: • 1. Methods: Normal Kunming (KM) mice (purchased from Guangdong Animal Center) were used for oral glucose tolerance test (OGTT) to obtain the hypoglycemic activity and durability of drug. […] The blood glucose meter and blood glucose test paper were from Bayer […]. The average blood glucose of each group was used as an evaluation standard: When the average blood glucose of experimental group was higher than that of the NaCl control group for two times, the measurement stopped and the hypoglycemic period compared to the blank control group was the effective duration. • 2. Results • 2.1 single OGTTs: after a single administration, the mice were orally administered glucose once and measured the blood glucose from the tail blood at 0, 10, 20, 40, 60 and 120 min. […] The duration of each monomer group was about 1⁄2-1⁄4 of the duration of its corresponding dimer group. […] Therefore, the 2G3 peptide was selected for treating type II diabetes (T2D) in vivo and subsequent experiments.

Row | Substance | Hypoglycemic duration [days] | Hypoglycemic [days]
1 | 2G8 series 66: disulfide-linked homodimer of monomer SEQ ID NO: 66 (HXEGTFTCDVSSYLEGQAAXEFIAWLVRGRG; disulfide-linked homodimer; Sequence is synthesized; (2)..(2) Xaa is bAib; (20)..(20) Xaa is 26Lys[N-e-(N-a-oleoyl-L-g-glutamyl)]; (31)..(31) N-terminal) | 8 | –
2 | 2G8 series 67: disulfide-linked homodimer of monomer SEQ ID NO: 67 (H[bAib]EGTFTCDVSSYLEGQAAKEFIAWLVR[bAib]R; reading uncertain; also: disulfide-linked homodimer of two chains, disulfide at 8, other end not in the chain) | 3 | –
3 | 2G8 series 68: disulfide-linked homodimer of monomer SEQ ID NO: 68 (HXEGTFTCDVSSYLEGQAAXEFIAWLVRGRG; disulfide-linked homodimer; Sequence is synthesized; (2)..(2) Xaa is bAla; (20)..(20) Xaa is 26Lys[N-e-(N-a-oleoyl-L-g-glutamyl)]; (31)..(31) N-terminal) | 7 | –
4 | 2G8 series 69: disulfide-linked homodimer of monomer SEQ ID NO: 69 (H[βAla]EGTFTCDVSSYLEGQAAKEFIAWLVR[βAla]R; also: disulfide-linked homodimer) | 3 | –
5 | 2G9 series 71: disulfide-linked homodimer of PEG-modified monomer SEQ ID NO: 71 (HAEGTFTSDVSCYLEGQAAKEFIAWLVRGR-{NH2-PEG}; reading uncertain; also: disulfide-linked homodimer) | 5 | –
6 | His-Ala-Glu-Gly-Thr-Phe-Thr-Cys-Asp-Val-Ser-Ser-Tyr-Leu-Glu-Gly-Gln-Ala-Ala-Lys[N-α-(N-α-oleoyl-L-γ-glutamyl)]-Glu-Phe-Ile-Ala-Trp-Leu-Val-Arg-Gly-Arg-Gly-NH2 (HAEGTFTCDVSSYLEGQAAXEFIAWLVRGRG; oleoyl-gamma-Glu on Lys; C-terminal amide; Sequence is synthesized; (20)..(20) Xaa is 26Lys[N-e-(N-a-oleoyl-L-g-glutamyl)]; (31)..(31) N-terminal) [G8 series 59] | – | 3
7 | His-Ala-Glu-Gly-Thr-Phe-Thr-Cys-Asp-Val-Ser-Ser-Tyr-Leu-Glu-Gly-Gln-Ala-Ala-Lys[N-ϵ-(N-α-Palmitoyl-L-γ-glutamyl)]-Glu-Phe-Ile-Ala-Trp-Leu-Val-Arg-Gly-Arg-Gly-NH2 (HAEGTFTCDVSSYLEGQAAXEFIAWLVRGRG; palmitoyl-gamma-Glu on Lys; C-terminal amide; Sequence is synthesized; (20)..(20) Xaa is 26Lys[N-e-(N-a-palmitoyl-L-g-glutamyl)]; (31)..(31) N-terminal) [G8 series 57] | – | 2
8 | His-Ala-Glu-Gly-Thr-Phe-Thr-Cys-Asp-Val-Ser-Ser-Tyr-Leu-Glu-Gly-Gln-Ala-Ala-Lys[N-ϵ-(N-α-Palmitoyl-L-γ-glutamyl)]-Glu-Phe-Ile-Ala-Trp-Leu-Val-Arg-Gly-Arg-Gly-OH (HAEGTFTCDVSSYLEGQAAXEFIAWLVRGRG; palmitoyl-gamma-Glu on Lys; C-terminal acid; Sequence is synthesized; (20)..(20) Xaa is 26Lys[N-e-(N-a-palmitoyl-L-g-glutamyl)]; (31)..(31) C-terminal) [G8 series 56] | – | 1
9 | His-Ala-Glu-Gly-Thr-Phe-Thr-Ser-Asp-Val-Cys-Ser-Tyr-Leu-Glu-Gly-Gln-Ala-Ala-Lys[N-ϵ-(N-α-Palmitoyl)]-Glu-Phe-Ile-Ala-Trp-Leu-Val-Arg-Gly-Arg-Gly-NH2 (HAEGTFTSDVCSYLEGQAAXEFIAWLVRGRG; palmitoyl on Lys; C-terminal amide; Sequence is synthesized; (20)..(20) Xaa is 26Lys[N-e-(N-a-palmitoyl-L-g-glutamyl)]; (31)..(31) N-terminal) [G4 series 25] | – | 5
10 | His-Ala-Glu-Gly-Thr-Phe-Thr-Ser-Asp-Val-Cys-Ser-Tyr-Leu-Glu-Gly-Gln-Ala-Ala-Lys[N-ϵ-(N-α-Palmitoyl)]-Glu-Phe-Ile-Ala-Trp-Leu-Val-Arg-Gly-Arg-Gly-OH (HAEGTFTSDVCSYLEGQAAXEFIAWLVRGRG; palmitoyl on Lys; C-terminal acid; Sequence is synthesized; (20)..(20) Xaa is 26Lys[N-e-(N-a-palmitoyl-L-g-glutamyl)]; (31)..(31) C-terminal) [G4 series 24] | – | 3
11 | His-Ala-Glu-Gly-Thr-Phe-Thr-Ser-Asp-Val-Cys-Ser-Tyr-Leu-Glu-Gly-Gln-Ala-Ala-Lys[N-ϵ-(N-α-Palmitoyl-L-γ-glutamyl)]-Glu-Phe-Ile-Ala-Trp-Leu-Val-Arg-Gly-Arg-Gly-NH2 (HAEGTFTSDVCSYLEGQAAXEFIAWLVRGRG; palmitoyl-γ-glutamyl on Lys; C-terminal amide; Sequence is synthesized; (20)..(20) Xaa is Xaa is 26Lys[N-e-(N-a-Palmitoyl-g-glutamyl)]; (31)..(31) N-terminal) [G2 series 8] | – | 5
12 | His-Ala-Glu-Gly-Thr-Phe-Thr-Ser-Asp-Val-Cys-Ser-Tyr-Leu-Glu-Gly-Gln-Ala-Ala-Lys[N-ϵ-(N-α-oleoyl)]-Glu-Phe-Ile-Ala-Trp-Leu-Val-Arg-Gly-Arg-Gly-NH2 (HAEGTFTSDVCSYLEGQAAXEFIAWLVRGRG; oleoyl on Lys; C-terminal amide; Sequence is synthesized; (20)..(20) Xaa is 26Lys[N-e-(N-a-oleoyl-L-g-glutamyl)]; (31)..(31) N-terminal) [G4 series 27] | – | 6
13 | His-Ala-Glu-Gly-Thr-Phe-Thr-Ser-Asp-Val-Cys-Ser-Tyr-Leu-Glu-Gly-Gln-Ala-Ala-Lys[N-ϵ-(N-α-oleoyl)]-Glu-Phe-Ile-Ala-Trp-Leu-Val-Arg-Gly-Arg-Gly-OH (HAEGTFTSDVCSYLEGQAAXEFIAWLVRGRG; oleoyl on Lys; C-terminal acid; Sequence is synthesized; (20)..(20) Xaa is 26Lys[N-e-(N-a-oleoyl-L-g-glutamyl)]; (31)..(31) C-terminal) [G4 series 26] | – | 4
14 | His-Ala-Glu-Gly-Thr-Phe-Thr-Ser-Asp-Val-Cys-Ser-Tyr-Leu-Glu-Gly-Gln-Ala-Ala-Lys[N-ϵ-(N-α-oleoyl-L-γ-glutamyl)]-Glu-Phe-Ile-Ala-Trp-Leu-Val-Arg-Gly-Arg-Gly-NH2 (HAEGTFTSDVCSYLEGQAAXEFIAWLVRGRG; oleoyl-γ-glutamyl on Lys; C-terminal amide; Sequence is synthesized; (20)..(20) Xaa is 26Lys[N-e-(N-a-oleoyl-L-g-glutamyl)]; (31)..(31) N-terminal) [G2 series 10] | – | 5
15 | His-Ala-Glu-Gly-Thr-Phe-Thr-Ser-Asp-Val-Cys-Ser-Tyr-Leu-Glu-Gly-Gln-Ala-Ala-Lys[N-ϵ-(N-α-oleoyl-L-γ-glutamyl)]-Glu-Phe-Ile-Ala-Trp-Leu-Val-Arg-Gly-Arg-Gly-OH (HAEGTFTSDVCSYLEGQAAXEFIAWLVRGRG; oleoyl-γ-glutamyl on Lys; C-terminal acid; Sequence is synthesized; (20)..(20) Xaa is 26Lys[N-e-(N-a-oleoyl-L-g-glutamyl)]; (31)..(1) C-terminal) [G2 series 9] | – | 3
16 | His-Ala-Glu-Gly-Thr-Phe-Thr-Ser-Asp-Val-Ser-Cys--Tyr-Leu-Glu-Gly-Gln-Ala-Ala-Lys[N-ϵ-(N-α-oleoyl-L-γ-glutamyl)]-Glu-Phe-Ile-Ala-Trp-Leu-Val-Arg-Gly-Arg-Gly-NH2 (HAEGTFTSDVSCYLEGQAAXEFIAWLVRGRG; oleoyl-γ-glutamyl on Lys; C-terminal amide; Sequence is synthesized; (20)..(20) Xaa is 26Lys[N-e-(N-a-oleoyl-L-g-glutamyl)]; (31)..(31) N-terminal) [G3 series 23] | – | 7
17 | His-Ala-Glu-Gly-Thr-Phe-Thr-Ser-Asp-Val-Ser-Cys-Tyr-Leu-Glu-Gly-Gln-Ala-Ala-Lys-Glu-Phe-Ile-Ala-Trp-Leu-Val-Arg-Gly-Arg-NH-PEG (HAEGTFTSDVSCYLEGQAAKEFIAWLVRGR; not fully specified; C-terminal PEG; Sequence is synthesized; (30)..(30) N-terminal is modified with PEG) [G9 series 71] | – | 3
18 | His-Ala-Glu-Gly-Thr-Phe-Thr-Ser-Asp-Val-Ser-Cys-Tyr-Leu-Glu-Gly-Gln-Ala-Ala-Lys[N-ϵ-(N-α-Palmitoyl)]-Glu-Phe-Ile-Ala-Trp-Leu-Val-Arg-Gly-Arg-Gly-NH2 (HAEGTFTSDVSCYLEGQAAXEFIAWLVRGRG; palmitoyl on Lys side chain; C-terminal amide; Sequence is synthesized; (20)..(20) Xaa is 26Lys[N-e-(N-a-palmitoyl-L-g-glutamyl)]; (31)..(31) N-terminal) [G4 series 35] | – | 6
